From US7547729B2, “1,3-diphenylprop-2-en-1-one derivative compounds, preparation method thereof and uses of same” (Genfit, priority 2004, dated 2009)

Experiments:
[1] = biological target: T1, PPARδ (Homo sapiens, UniProt Q03181); test: PPARδ/Gal4 transactivation system in COS-7 cells; type: cell-based; conditions: 24 hours
T1 construct: expressed in transfected cells; host or cells: COS-7 cells
T1 sequence (Q03181 211-439 limits assumed): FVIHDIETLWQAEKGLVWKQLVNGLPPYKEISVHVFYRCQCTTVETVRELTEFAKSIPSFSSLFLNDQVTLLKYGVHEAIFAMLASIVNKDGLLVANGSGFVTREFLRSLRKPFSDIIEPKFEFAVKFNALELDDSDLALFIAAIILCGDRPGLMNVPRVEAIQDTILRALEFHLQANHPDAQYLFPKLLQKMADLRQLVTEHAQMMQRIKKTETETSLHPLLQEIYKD
Experimental: (§1) COS-7 cells were incubated with different concentrations of the inventive compounds for 24 hours. The results are expressed as the induction factor (ratio of luminescent signal obtained with the compound and that observed without the compound) after the different treatments.
(§2) PPAR activation was tested in vitro in RK13 epitheloid or COS-7 cell lines by measuring the transcriptional activity of chimeras composed of the DNA binding domain of the yeast gal4 transcription factor and the ligand binding domain of the different PPARs. These latter results were then confirmed in cell lines according to the following protocols:
(§3) RK13 cells were from ECACC (Porton Down, UK), COS-7 cells were from the ATCC (American Type Culture Collection) and were grown in DMEM medium supplemented with 10% (VN) fetal calf serum, 100 U/ml penicillin (Gibco, Paisley, UK) and 2 mM L-glutamine (Gibco, Paisley, UK). The culture medium was changed every two days. Cells were kept at 37° C. in a humidified 95% air/5% CO2 atmosphere.
(§4) The plasmids pG5TkpGL3, pRL-CMV, pGal4-hPPARα, pGal4-hPPARγ, pGal4-hPPARδ and pGal4-φ have been described by Raspe, Madsen et al. (1999). The pGal4-mPPARα, pGal4-hPPARγ and pGal4-hPPARδ constructs were obtained by cloning into the pGal4-φ vector of PCR-amplified DNA fragments corresponding to the DEF domains of the human PPARα, PPARγ and PPARδ nuclear receptors.
(§5) RK13 cells were seeded in 24-well culture dishes at 5×10^4 cells/well, COS-7 cells in 96-well culture dishes at 5×10^4 cells/well and transfected for 2 hours with the reporter plasmid pG5TkpGL3 (50 ng/well), the expression vectors pGal4-φ, pGal4-mPPARα, pGal4-hPPARα, pGal4-hPPARγ, pGal4-hPPARδ (100 ng/well) and the transfection efficiency control vector pRL-CMV (1 ng/well) according to the previously described protocol (Raspe, Madsen et al. 1999), then incubated for 36 hours with the test compounds. At the end of the experiment, the cells were lysed (Gibco, Paisley, UK) and luciferase activity was determined with a Dual-Luciferase™ Reporter Assay System kit (Promega, Madison, Wis., USA) for RK13 cells and Steady Glow Luciferase (Promega) for COS-7 cells according to the supplier's instructions as previously described. The protein content of the cell extracts was then measured with the Bio-Rad Protein Assay (Bio-Rad, Munich, Germany) as directed by the supplier.

[2] = test system: Apo E2/E2 transgenic mice; test: Effects on triglyceride and cholesterol metabolism in Apo E2/E2 transgenic mice; type: in vivo; conditions: gavage, 50 mg/kg/day, seven days
Experimental: FIGS. 19a, 19b, 19c, 19d, 20a, 20b, 20c and 20d illustrate the effects of treatment with compound 2 (Cpd2), compound 13 (Cpd13), compound 33 (Cpd33) and compound 39 (Cpd39) on triglyceride and cholesterol metabolism in Apo E2/E2 transgenic mice treated by gavage with the compound at a dose of 50 mg/kg/day, for seven days.
Apo E2/E2 transgenic mice were housed in a 12-hour light/dark cycle at a constant temperature of 20±3° C. After a 1-week acclimatization period, the mice were weighed and divided into groups of 6 animals selected such that the distribution of body weight was uniform. The test compounds were suspended in carboxymethylcellulose and administered by gastric lavage at the indicated doses, once a day for 7 days. Animals had access to food and water ad libitum. At the end of the experiments, animals were weighed and sacrificed under anesthesia. Blood was collected on EDTA. Plasma was isolated by centrifugation at 3000 rpm for 20 minutes. Liver samples were removed and stored frozen in liquid nitrogen for later analysis.
Lipid concentrations in plasma (total cholesterol and free cholesterol, triglycerides and phospholipids) were determined by a colorimetric assay (Boehringer, Mannheim, Germany) according to the supplier's instructions. Plasma concentrations of apolipoproteins AI, AII and CIII were determined as previously described (Raspe et al. 1999, Asset G et al., Lipids, 1999).

[3] = biological target: T2, PPARα (Homo sapiens, UniProt Q07869); test: PPARα/Gal4 transactivation system in COS-7 cells; type: cell-based; conditions: 24 hours
T2 construct: expressed in transfected cells; host or cells: COS-7 cells
T2 sequence (Q07869 239-466 limits assumed): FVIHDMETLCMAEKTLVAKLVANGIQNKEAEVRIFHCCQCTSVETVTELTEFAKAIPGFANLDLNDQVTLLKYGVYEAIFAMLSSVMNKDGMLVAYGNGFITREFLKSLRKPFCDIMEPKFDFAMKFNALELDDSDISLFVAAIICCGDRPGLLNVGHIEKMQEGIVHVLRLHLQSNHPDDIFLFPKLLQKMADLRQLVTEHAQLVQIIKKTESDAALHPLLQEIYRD
Experimental: as §1, §2, §3, §4, §5

[4] = test system: LDL; test: Protection against LDL oxidation by copper (conjugated diene formation); type: biochemical; conditions: 10^−4M; for diene oxidation rate: FIG. 7b
Experimental: Unless otherwise indicated, the reagents were from Sigma (St Quentin, France). LDL were prepared according to the method described by Lebeau et al. (Lebeau, Furman et al. 2000).
The solutions of test compounds were prepared at 10^−2 M concentration in bicarbonate buffer (pH 9) and diluted in PBS to obtain final concentrations ranging from 0.1 to 100 μM
Prior to oxidation, EDTA was removed from the LDL preparation by dialysis. Oxidation then took place at 30° C. by adding 100 μl of 16.6 μM CuSO4 solution to 160 μL of LDL (125 μg protein/ml) and 20 μl of a test compound solution. The formation of dienes, the species under observation, was followed by measuring optical density at 232 nm in the samples treated with the compounds in the presence or absence of copper. Optical density at 232 nm was measured every 10 minutes for 8 hours in a thermostated spectrophotometer (Tecan Ultra 380). The analyses were performed in triplicate. The compounds were considered to have antioxidant activity when they induced a longer lag phase and reduced the rate of oxidation and the amount of dienes formed in comparison with the control sample.

[5] = biological target: T3, PPARγ (Homo sapiens, UniProt P37231); test: PPARγ/Gal4 transactivation system in COS-7 cells; type: cell-based; conditions: 24 hours
T3 construct: expressed in transfected cells; host or cells: COS-7 cells
T3 sequence (P37231 238-503 limits assumed): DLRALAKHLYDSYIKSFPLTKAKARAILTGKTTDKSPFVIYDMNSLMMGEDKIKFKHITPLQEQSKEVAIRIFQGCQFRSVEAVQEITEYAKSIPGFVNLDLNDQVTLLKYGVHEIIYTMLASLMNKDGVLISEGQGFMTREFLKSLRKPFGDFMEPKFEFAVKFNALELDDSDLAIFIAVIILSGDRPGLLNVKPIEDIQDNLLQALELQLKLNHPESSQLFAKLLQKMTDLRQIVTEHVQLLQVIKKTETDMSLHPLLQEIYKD
Experimental: as §1, §2, §3, §4, §5

[6] = test system: monocyte-derived dendritic cells; test: Differentiation of monocytes to dendritic cells (flow cytometry of surface markers); type: cell-based
Experimental: Compound 39 (10^−6 M) was added at D0 of differentiation of monocytes to dendritic cells. After six days of differentiation (in the presence of cytokines GM-CSF and IL-4), the dendritic cells were analyzed by flow cytometry.
For these experiments, blood samples from volunteer donors (Etablissement Francais du Sang) and monocytes were isolated by a standard protocol using anti-CD14-conjugated magnetic beads (Miltenyi Biotec). Monocytes isolated in this manner were then induced to differentiate by incubation for 6 days in culture medium containing a mixture of cytokines GM-CSF and IL-4 (20 ng/ml for each cytokine).
Compound 39 was added at t=0 and acquisition of the dendritic cell phenotype was followed by expression of the cell surface marker CD1a.

[7] = FIG. 7a, absence of compounds 67.3 minutes
[8] = compound added at t=0, six days differentiation, data not shown

Structure (SMILES)	Induction factor ([1]; 0.01 μM)	Induction factor ([1]; 0.03 μM)	Induction factor ([1]; 0.1 μM)	plasma cholesterol [2]	plasma triglycerides [2]	Induction factor ([3]; 0.001 μM)	Induction factor ([3]; 0.003 μM)	Induction factor ([3]; 0.01 μM)	Induction factor ([3]; 0.03 μM)	Induction factor ([3]; 0.1 μM)	Induction factor ([3]; 0.3 μM)	Induction factor ([3]; 1 μM)	Induction factor ([5]; 0.001 μM)	Induction factor ([5]; 0.003 μM)	Induction factor ([5]; 0.01 μM)	Induction factor ([5]; 0.03 μM)	Induction factor ([5]; 0.1 μM)	Induction factor ([5]; 0.3 μM)	Induction factor ([5]; 1 μM)	Induction factor ([5]; 3 μM)	other results
Cc1cc(/C=C/C(=O)c2ccc(Oc3ccccc3)cc2)cc(C)c1OC(C)(C)C(=O)O [compound 33, 1-(4-Phenyloxyphenyl)-3-(4-carboxydimethylmethyloxy-3,5-dimethylphenyl)prop-2-en-1-one]	1.87	5.29	15.01	decrease	decrease	5.23	15.18	19.53	19.71	19.17	20.82	19.97	1.18	1.61	2.65	3.54	4.88	5.95	6.93	7.99	Induction factor ([1]; 0.001 μM): 1.17; Induction factor ([1]; 0.003 μM): 1.23; Induction factor ([1]; 0.3 μM): 33.89; Induction factor ([1]; 1 μM): 74.09; Induction factor ([1]; 3 μM): 90.84; lag phase [4, 7]: 148 min; diene oxidation rate ([4]; absence of compounds 2.5): 1.4 nmol/min/mg of LDL; total amount of dienes formed ([4]; FIG. 7c, absence of compounds 432.5): 399 nmol/mg of LDL; Induction factor ([5]; 10 μM): 6.30
CSc1c(C)cc(C(=O)/C=C/c2cc(C)c(OC(C)(C)C(=O)O)c(C)c2)cc1C [compound 13, 1-(4-Methylthio-3,5-dimethylphenyl)-3-(4-carboxydimethylmethyloxy-3,5-dimethylphenyl)prop-2-en-1-one]	1.50	2.17	3.37	decrease	decrease	1.10	1.58	4.99	10.89	16.87	15.95	17.05	0.99	1.15	1.67	2.18	3.01	3.66	4.03	3.89	Induction factor ([1]; 0.3 μM): 14.00; Induction factor ([1]; 1 μM): 28.75; Induction factor ([1]; 3 μM): 27.72; lag phase [4, 7]: 219 min; diene oxidation rate ([4]; absence of compounds 2.5): 1.5 nmol/min/mg of LDL
CCCCCCSc1c(C)cc(C(=O)/C=C/c2cc(C)c(OC(C)(C)C(=O)O)c(C)c2)cc1C [compound 39, 1-(4-Hexylthio-3,5-dimethylphenyl)-3-(4-carboxydimethylmethyloxy-3,5-dimethylphenyl)prop-2-en-1-one]	–	–	–	decrease	decrease	1.08	1.17	3.19	7.69	9.68	10.16	10.42	0.95	0.96	1.56	3.06	4.08	4.86	4.78	4.72	expression of CD1a at the cell surface ([6]; 10^−6 M added at D0, six days with GM-CSF and IL-4): almost totally inhibiting; CD86 expression [6, 8]: slightly increased; expression of the costimulation molecule CD80 [6, 8]: reduced, to a lesser extent; Induction factor ([3]; 3 μM): 9.96; lag phase ([4]; FIG. 8a, absence of compounds 67.3 minutes): 133 min; rate of LDL oxidation ([4]; FIG. 8b, absence of compounds 2.5): 1.2 nmol/min/mg; total amount of dienes formed ([4]; FIG. 8c, absence of compound 432.3): 371.2 nmol/mg
CSc1ccc(C(=O)/C=C/c2cc(Br)c(OC(C)(C)C(=O)O)c(Br)c2)cc1 [compound 8, 1-(4-Methylthiophenyl)-3-(4-carboxydimethylmethyloxy-3,5-dibromophenyl)prop-2-ene-1-one]	–	–	–	–	–	–	–	–	–	–	–	15.67	–	–	–	–	–	–	2.13	–	Induction factor ([3]; 10 μM): 12.66; lag phase ([4]; FIG. 2a, copper alone 132 minutes): 169 min; rate of diene formation ([4]; FIG. 2b, copper alone 2.2): 1.7 nmol/min/mg; total amount of dienes formed ([4]; FIG. 2c, copper alone 511): 474 nmol/mg; Induction factor ([5]; 10 μM): 2.74
